Measurements reported in paper PMC9606955, “In Vitro Activity of Essential Oils Distilled from Colombian Plants against Candida auris and Other Candida Species with Different Antifungal Susceptibility Profiles” (Molecules, 2022).
≈ marks a conversion by molar mass, not a printed value.

Legend:
C. glabrata LMDM 34 = assay: MIC, CLSI M27 broth microdilution; format: cell-based, Candida glabrata; conditions: antifungal drugs; for MIC: Nakaseomyces glabratus, LMDM34, geometric mean
Source text: (§1) The fungal strains used in this study were C. albicans ATCC 10231, C. albicans ATCC 64550, C. parapsilosis ATCC 22019, C. tropicalis ATCC 750, C. tropicalis ATCC 200956 (resistant to azoles and AMB), C. glabrata LMDM 34 (resistant to echinocandins), C. metapsilosis MUM 15.12, C. orthopsilosis MUM 17.13, C. lusitaniae MUM 17.08, C. krusei ATCC 6258 (Issatchenkia orientalis ATCC 6258), and C. auris CDC B11903. Additionally, nine clinical isolates were included: C. parapsilosis Synlab 406 (FLC-resistant) and eight C. auris isolates identified by MALDI-TOF MS (Bruker Daltonics, Bremen, Germany) according to Zhao et al.. These yeasts were cultured on Sabouraud Dextrose Agar (SDA; Sigma-Aldrich, St. Louis, MO, USA) for 24 h at 35 °C.
Antifungal susceptibility testing was performed according to Clinical and Laboratory Standards Institute M27, 4th Edition (CLSI standard M27, 4th Edition). Some modifications were applied for evaluation of the antifungal activity of EOs and terpenes. Initially, a screening was carried out to determine the antifungal activity of the EOs and of commercial terpenes. Stock concentrations of EOs and terpenes were prepared at 512 µg/mL and an inoculum of 2.5 × 10^3 CFU/mL of each yeast was prepared in RPMI 1640-MOPS (Sigma- Aldrich St. Louis, MO, USA). Thereafter, 100 µL of each stock solution of EOs or terpenes was dispensed in 96-well microdilution plates (Corning®, Costar®, NY, USA) and 100 µL of each yeast inoculum was added. […] Microdilution plates were incubated at 35 °C and, after 24 h, the presence or absence of growth was visually checked using a manual mirror viewer and then compared with the amount of growth in the control (no EO or terpene). Compounds able to inhibit yeast growth were tested to determine the minimal inhibitory concentration (MIC) as follows: 100 µL of 10 two-fold dilutions of the EOs or commercial terpenes was dispensed in 96-well microplates and the yeast inoculum was added. Final concentrations of the EOs or terpenes ranged from 0.5 µg/mL to 256 µg/mL. Microdilution plates were incubated at 35 °C for 24 h. MICs were visually determined at the lowest concentration that produced visual inhibition compared to the growth control. The assays were performed at least three times in duplicate on different days. The results were expressed as geometric means (GM) and ranges. As an antifungal susceptibility testing control, the activity of ITC and AMB against the reference strains C. krusei ATCC 6258 and C. parapsilosis ATCC 22019 was evaluated in all experiments following the CLSI standard M27, 4th Edition. It was mandatory that the MIC values remained in the accepted range.

[1] = tested on: C. metapsilosis MUM 15.12; assay: MIC, CLSI M27 broth microdilution; format: cell-based, Candida metapsilosis; conditions: C. metapsilosis MUM 15.12, antifungal drugs; for MIC: Lodderomyces metapsilosis, MUM15.12, geometric mean, read-out: MIC GM
Procedure, shortened: (§2)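 Yeasts grown on SDA 24 h at 35 °C; inoculum 2.5 × 10^3 CFU/mL in RPMI 1640-MOPS. Ten two-fold dilutions of EOs or terpenes, final 0.5–256 µg/mL, incubated 24 h at 35 °C. MIC read visually as lowest concentration inhibiting growth versus control; geometric means of ≥3 duplicate runs.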

[2] = tested on: C. orthopsilosis MUM 17.13; assay: MIC, CLSI M27 broth microdilution; format: cell-based, Candida orthopsilosis; conditions: C. orthopsilosis MUM 17.13, antifungal drugs; for MIC: Lodderomyces orthopsilosis, MUM17.13, geometric mean, read-out: MIC GM
Procedure, shortened: as §2

C. lusitaniae MUM 17.08 = assay: MIC, CLSI M27 broth microdilution; format: cell-based, Candida lusitaniae; conditions: C. lusitaniae MUM 17.08, antifungal drugs; for MIC: Clavispora lusitaniae, MUM17.08, geometric mean, read-out: MIC GM
Procedure, shortened: as §2

C. auris = assay: MIC, CLSI M27 broth microdilution, several C. auris strains together; format: cell-based, Candida auris; conditions: C. auris Ca 41, Ca 45 and Ca 46 together
Source text: as §1
Antifungal susceptibility testing was performed according to Clinical and Laboratory Standards Institute M27, 4th Edition (CLSI standard M27, 4th Edition). […] MICs were visually determined at the lowest concentration that produced visual inhibition compared to the growth control. […] The results were expressed as geometric means (GM) and ranges. As an antifungal susceptibility testing control, the activity of ITC and AMB against the reference strains C. krusei ATCC 6258 and C. parapsilosis ATCC 22019 was evaluated in all experiments following the CLSI standard M27, 4th Edition. […]

Row | SMILES | MIC (C. glabrata LMDM 34) [µg/mL] | MIC Range (C. glabrata LMDM 34) [µg/mL] | MIC Range [1] [µg/mL] | MIC [1] [µg/mL] | MIC Range [2] [µg/mL] | MIC [2] [µg/mL] | MIC Range (C. lusitaniae MUM 17.08) [µg/mL] | MIC (C. lusitaniae MUM 17.08) [µg/mL] | MIC Range (C. auris) [µg/mL]
1 | C[C@@H]1[C@H](O)[C@@H](C)/C=C/C=C/C=C/C=C/C=C/C=C/C=C/[C@H](O[C@@H]2O[C@H](C)[C@@H](O)[C@H](N)[C@@H]2O)C[C@@H]2O[C@](O)(C[C@@H](O)C[C@@H](O)[C@H](O)CC[C@@H](O)C[C@@H](O)CC(=O)O[C@H]1C)C[C@H](O)[C@H]2C(=O)O [AMB, amphotericin B] | 0.06 (≈ 0.0649 µM) | 0.06 to 0.12 | <0.03 | < 0.03 | <0.03 | < 0.03 | 0.03 (≈ 0.0325 µM) | 0.03 (≈ 0.0325 µM) | 1 to 2
2 | OC(Cn1cncn1)(Cn1cncn1)c1ccc(F)cc1F [FLC, fluconazole] | 2.8 (≈ 9.14 µM) | 2 to 4 | 1 to 2 | 1.4 (≈ 4.57 µM) | 1 (≈ 3.27 µM) | 1 (≈ 3.27 µM) | 0.5 (≈ 1.63 µM) | 0.5 (≈ 1.63 µM) | 
